Biological target: T1, Human GPR119 (Homo sapiens, UniProt Q8TDV5)
T1 construct: host or cells: HEK293 (ATCC)
T1 sequence (Q8TDV5 1-335): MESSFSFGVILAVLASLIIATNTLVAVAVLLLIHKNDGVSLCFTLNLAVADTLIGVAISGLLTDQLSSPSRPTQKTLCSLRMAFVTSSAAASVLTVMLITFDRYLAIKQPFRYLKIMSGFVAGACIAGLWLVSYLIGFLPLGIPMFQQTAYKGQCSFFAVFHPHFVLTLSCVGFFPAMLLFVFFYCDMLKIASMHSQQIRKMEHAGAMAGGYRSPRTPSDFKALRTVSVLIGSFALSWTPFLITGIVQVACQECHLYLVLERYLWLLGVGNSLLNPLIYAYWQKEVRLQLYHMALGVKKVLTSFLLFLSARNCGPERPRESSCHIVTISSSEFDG
Experiment: Human GPR119 activation assay (cAMP, HTRF)
Format: cell-based
Conditions: 1 h, HEK293 cells transiently expressing human GPR119, relative to maximum effect of OEA, read-out: hGPR119 activation ability (cAMP assay) Relative Response % vs OEA; for Emax at 0.001 µM: 1 nM; for Emax at 0.01 µM: 10 nM
Excerpt: <Experimental Example 1>Human GPR119 activation assay
Human GPR119 was temporarily expressed on cells, thereby quantifying the amount of cyclic adenosine 3′,5′-monophosphate (cAMP) increased upon activating GPR119 by the compound of the present invention, using the product from Cysbio, by a method of HTRF (homogeneous time resolved fluorescence), and such quantification was used to refer to efficacy on GPR119 activation.
Human GPR119 expression vector (Origene) was overexpressed in […] renal epithelial cells (HEK293) (ATCC), and the cells were stabilized for 48 hours. With a solution of 11.1 mM glucose, 0.1% bovine serum albumin, and 0.5 mM IBMX (3-isobutyl-1-methylxanthine) which is a phosphodiesterase inhibitor being added to a KRBH (Krebs-Ringer Bicarbonate HEPES; Hou ZQ. et al., Mol Cell Endocrinol, 2008(291):71-78) buffer, the cells were pre-treated for 10 minutes. Thereafter, the cells were treated with the same solution containing a drug for 60 minutes, then the supernatant was removed, and the increase in cAMP in cells was quantified using a Cysbio cAMP HiRange kit.
As to the maximum efficacy of compounds tested, multiple concentration assessment for the compounds of the present invention was carried out, thereby assessing the relative activation level (%) to the maximum effect of oleoylethanolamide (OEA), an endogenous ligand of GPR119.

SMILES	Emax at 0.001 µM	Emax at 0.01 µM
CCc1cnc(N2CCC(CCCOc3cc(F)c(-c4noc(CO)n4)c(F)c3)CC2)nc1 [Example 17, (3-(4-(3-(1-(5-ethylpyrimidin-2-yl)piperidin-4-yl)propoxy)-2,6-difluorophenyl)-1,2,4-oxadiazol-5-yl)methanol]	116%	216%
Cc1nc(-c2c(F)cc(OCCCC3CCN(c4ncc(-c5noc(CC(C)C)n5)cn4)CC3)cc2F)no1 [Example 30, 3-(2,6-difluoro-4-(3-(1-(5-(5-isobutyl-1,2,4-oxadiazol-3-yl)pyrimidin-2-yl)piperidin-4-yl)propoxy)phenyl)-5-methyl-1,2,4-oxadiazole]	103%	172%
CC(C)c1noc(N2CCC(CCCOc3cc(F)c(-c4noc(CO)n4)c(F)c3)CC2)n1 [Example 41, (3-(2,6-difluoro-4-(3-(1-(3-isopropyl-1,2,4-oxadiazol-5-yl)piperidin-4-yl)propoxy)phenyl)-1,2,4-oxadiazol-5-yl)methanol]	74.4%	203%
CCCc1noc(N2CCC(CCCOc3cc(F)c(-c4nnc(C)o4)c(F)c3)CC2)n1 [Example 52, 5-(4-(3-(3,5-difluoro-4-(5-methyl-1,3,4-oxadiazol-2-yl)phenoxy)propyl)piperidin-1-yl)-3-propyl-1,2,4-oxadiazole]	191%	295%
CC[C@H](O)c1nc(-c2c(F)cc(OCCCC3CCN(c4ncc(-c5noc(CC(C)C)n5)cn4)CC3)cc2F)no1 [Example 35, (S)-1-(3-(2,6-difluoro-4-(3-(1-(5-(5-isobutyl-1,2,4-oxadiazol-3-yl)pyrimidin-2-yl)piperidin-4-yl)propoxy)phenyl)-1,2,4-oxadiazol-5-yl) propan-1-ol]	52.5%	118%
COCc1nc(-c2c(F)cc(OCCCC3CCN(c4ncc(-c5noc(CC(C)C)n5)cn4)CC3)cc2F)no1 [Example 34, 3-(2,6-difluoro-4-(3-(1-(5-(5-isobutyl-1,2,4-oxadiazol-3-yl)pyrimidin-2-yl)piperidin-4-yl)propoxy)phenyl)-5-(methoxymethyl)-1,2,4-oxadiazole]	82.1%	134%
CCCc1nc(-c2c(F)cc(OCCCC3CCN(c4ncc(CC)cn4)CC3)cc2F)no1 [Example 14, 3-(4-(3-(1-(5-ethylpyrimidin-2-yl)piperidin-4-yl)propoxy)-2,6-difluorophenyl)-5-propyl-1,2,4-oxadiazole]	96%	131%
CCc1cnc(N2CCC(CCCOc3cc(F)c(C4=NCC(C)(C)O4)c(F)c3)CC2)nc1 [Example 6, 2-(4-(3-(1-(5-ethylpyrimidin-2-yl)piperidin-4-yl)propoxy)-2,6-difluorophenyl)-5,5-dimethyl-4,5-dihydrooxazole]	33.5%	102%
CCc1cnc(N2CCC(CCCOc3cc(F)c(C4=NC[C@@H](CO)O4)c(F)c3)CC2)nc1 [Example 8, (S)-(2-(4-(3-(1-(5-ethylpyrimidin-2-yl)piperidin-4-yl)propoxy)-2,6-difluorophenyl)-4,5-dihydrooxazol-5-yl)methanol]	144%	393%
CC(C)Cc1nc(-c2cnc(N3CCC(CCCOc4cc(F)c(-c5noc(C(C)(C)CO)n5)c(F)c4)CC3)nc2)no1 [Example 36, 2-(3-(2,6-difluoro-4-(3-(1-(5-(5-isobutyl-1,2,4-oxadiazol-3-yl)pyrimidin-2-yl)piperidin-4-yl)propoxy)phenyl)-1,2,4-oxadiazol-5-yl)-2-methylpropan-1-ol]	66.4%	174%
CCc1cnc(N2CCC(CCCOc3cc(F)c(-c4noc(C[C@H](C)O)n4)c(F)c3)CC2)nc1 [Example 21, (S)-1-(3-(4-(3-(1-(5-ethylpyrimidin-2-yl)piperidin-4-yl)propoxyl)-2,6-difluorophenyl)-1,2,4-oxadiazol-5-yl) propan-2-ol]	160%	336%

Other lines, results leading:

Emax at 0.001 µM	Emax at 0.01 µM	SMILES
88.8%	169%	CCCCCc1cnc(N2CCC(CCCOc3cc(F)c(-c4nnc(C(C)C)s4)c(F)c3)CC2)nc1 [Example 62, 2-(2,6-difluoro-4-(3-(1-(5-pentylpyrimidin-2-yl)piperidin-4-yl)propoxy)phenyl)-5-isopropyl-1,3,4-thiadiazole]
77%	179%	CC(C)c1nnc(-c2c(F)cc(OCCCC3CCN(c4ncc(C(F)(F)F)cn4)CC3)cc2F)s1 [Example 64, 2-(2,6-difluoro-4-(3-(1-(5-(trifluoromethyl)pyrimidin-2-yl)piperidin-4-yl)propoxy)phenyl)-5-isopropyl-1,3,4-thiadiazole]
140%	329%	CC(C)c1nc(N2CCC(CCCOc3cc(F)c(-c4nnc(C(C)C)o4)c(F)c3)CC2)no1 [Example 59, 3-(4-(3-(3,5-difluoro-4-(5-isopropyl-1,3,4-oxadiazol-2-yl)phenoxy)propyl)piperidin-1-yl)-5-isopropyl-1,2,4-oxadiazole]
9.4%	123%	CC(C)Oc1cnc(N2CCC(CCCOc3cc(F)c(-c4noc(C(C)C)n4)c(F)c3)CC2)nc1 [Example 27, 3-(2,6-difluoro-4-(3-(1-(5-isopropoxypyrimidin-2-yl)piperidin-4-yl)propoxy)phenyl)-5-isopropyl-1,2,4-oxadiazole]
78.1%	189%	CC(C)c1nnc(-c2c(F)cc(OCCCC3CCN(c4ccc(C(F)(F)F)cn4)CC3)cc2F)s1 [Example 65, 2-(2,6-difluoro-4-(3-(1-(5-(trifluoromethyl)pyridin-2-yl)piperidin-4-yl)propoxy)phenyl)-5-isopropyl-1,3,4-thiadiazole]
120%	201%	Cc1nc(-c2c(F)cc(OCCCC3CCN(c4nc(C(C)C)no4)CC3)cc2F)no1 [Example 39, 3-(2,6-difluoro-4-(3-(1-(3-isopropyl-1,2,4-oxadiazol-5-yl)piperidin-4-yl)propoxy)phenyl)-5-methyl-1,2,4-oxadiazole]
493%	830%	CCc1cnc(N2CCC(CCCOc3cc(F)c(-c4nnc(C(C)C)o4)c(F)c3)CC2)nc1 [Example 44, 2-(4-(3-(1-(5-ethylpyrimidin-2-yl)piperidin-4-yl)propoxy)-2,6-difluorophenyl)-5-isopropyl-1,3,4-oxadiazole]
699%	–	Cc1nnc(-c2c(F)cc(OCCCC3CCN(c4nc(CC(F)(F)F)no4)CC3)cc2F)o1 [Example 58, 5-(4-(3-(3,5-difluoro-4-(5-methyl-1,3,4-oxadiazol-2-yl)phenoxy)propyl)piperidin-1-yl)-3-(2,2,2-trifluoroethyl)-1,2,4-oxadiazole]
98.1%	186%	CCCc1cnc(N2CCC(CCCOc3cc(F)c(-c4nnc(C(C)C)s4)c(F)c3)CC2)nc1 [Example 61, 2-(2,6-difluoro-4-(3-(1-(5-propylpyrimidin-2-yl)piperidin-4-yl)propoxy)phenyl)-5-isopropyl-1,3,4-thiadiazole]
285%	516%	CCc1cnc(N2CCC(CCCOc3cc(F)c(-c4nnc(C(C)C)s4)c(F)c3)CC2)nc1 [Example 60, 2-(4-(3-(1-(5-ethylpyrimidin-2-yl)piperidin-4-yl)propoxy)-2,6-difluorophenyl)-5-isopropyl-1,3,4-thiadiazole]

From patent publication US10428055B2, “Substituted piperidines having GPR119 agonistic activity” (DONG-A ST CO., LTD., priority 2014, dated 2019)
